Here are results for three compounds from publication PMC8279417 (Journal of Medicinal Chemistry, 2021).

Data set [1] deals with T1, ERα (Homo sapiens, UniProt P03372).
T1 sequence (P03372 311-547 limits assumed): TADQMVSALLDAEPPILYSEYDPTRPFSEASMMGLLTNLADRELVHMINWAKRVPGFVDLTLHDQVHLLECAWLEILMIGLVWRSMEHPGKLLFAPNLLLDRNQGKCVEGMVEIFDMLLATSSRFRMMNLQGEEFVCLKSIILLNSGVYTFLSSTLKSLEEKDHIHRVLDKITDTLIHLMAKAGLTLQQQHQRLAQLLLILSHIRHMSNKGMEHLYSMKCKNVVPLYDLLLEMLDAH
Conditions: for IC50: read-out: TR-FRET ERα IC50, displacement of fluorescent-labeled E2 from the LBD of ERα; for RBA ERα: relative binding affinity compared to E2 (100%).
Description: (§1) LanthaScreen TR-FRET ER alpha/beta competitive binding assays (Invitrogen, Carlsbad) were used to investigate the binding affinity to the isolated receptors according to the manufacturer′s protocols. Measurement was performed with an Enspire multimode plate reader (PerkinElmer Life Sciences, Waltham). Calculations were performed with Excel (Microsoft, Redmond) and GraphPad Prism (GraphPad Software, San Diego).

Data set [2] deals with T2, ERβ (Homo sapiens, UniProt Q92731). The data set can be described thus: Luciferase reporter gene assay (transactivation), U2OS cells transfected with pSG5-ERβ. It is filed as cell-based. Particulars: inhibition of E2-induced (0.3 nM) transactivation. Background: In a reporter assay the amount or activity of a reporter protein is the signal.
Target sequence in this assay (Q92731 whole entry): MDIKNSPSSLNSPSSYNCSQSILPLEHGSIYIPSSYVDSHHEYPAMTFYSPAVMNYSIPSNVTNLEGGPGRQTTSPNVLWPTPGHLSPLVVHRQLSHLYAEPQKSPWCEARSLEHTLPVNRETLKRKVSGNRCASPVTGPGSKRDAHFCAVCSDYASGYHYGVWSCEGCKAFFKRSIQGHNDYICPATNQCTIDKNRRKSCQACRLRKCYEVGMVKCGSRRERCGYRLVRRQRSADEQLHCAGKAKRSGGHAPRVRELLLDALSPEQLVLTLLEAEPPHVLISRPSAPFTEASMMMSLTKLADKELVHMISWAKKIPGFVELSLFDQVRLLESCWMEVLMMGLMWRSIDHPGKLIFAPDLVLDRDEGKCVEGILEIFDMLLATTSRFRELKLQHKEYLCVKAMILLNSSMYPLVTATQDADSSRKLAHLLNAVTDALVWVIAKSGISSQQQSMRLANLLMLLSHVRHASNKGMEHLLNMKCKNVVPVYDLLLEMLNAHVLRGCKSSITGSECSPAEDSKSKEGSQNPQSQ
The subject of a further data set is MCF-7 cells. Description: Cellular uptake into MCF-7 cells (fluorometry, related to protein content). It is filed as in vitro ADME. Particulars: 10 μM, after 4 h (saturation), nmol compound/mg protein.
The next data set relates to MCF-7TamR cells. The data set can be described thus: Crystal violet assay, MCF-7TamR cells. It is filed as cell-based.
In data set [3] the target is T3, ERα (Homo sapiens, UniProt P03372).
T3 sequence (P03372 1-595): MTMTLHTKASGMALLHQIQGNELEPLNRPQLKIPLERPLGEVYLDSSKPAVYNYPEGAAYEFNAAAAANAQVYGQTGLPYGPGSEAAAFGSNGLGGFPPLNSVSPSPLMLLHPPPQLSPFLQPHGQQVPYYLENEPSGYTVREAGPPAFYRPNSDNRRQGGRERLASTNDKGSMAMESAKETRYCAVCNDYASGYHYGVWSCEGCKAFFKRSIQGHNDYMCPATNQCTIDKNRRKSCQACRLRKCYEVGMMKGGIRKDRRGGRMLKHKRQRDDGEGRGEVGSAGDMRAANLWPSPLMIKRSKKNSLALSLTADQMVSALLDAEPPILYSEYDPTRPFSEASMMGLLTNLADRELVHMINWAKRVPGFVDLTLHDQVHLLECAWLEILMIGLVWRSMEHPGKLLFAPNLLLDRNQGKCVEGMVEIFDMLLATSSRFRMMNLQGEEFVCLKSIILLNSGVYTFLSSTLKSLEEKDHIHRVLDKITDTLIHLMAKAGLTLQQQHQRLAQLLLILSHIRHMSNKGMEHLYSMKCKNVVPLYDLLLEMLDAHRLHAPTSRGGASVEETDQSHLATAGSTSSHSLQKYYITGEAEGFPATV
Description: In-Cell Western immunoassay, ERα levels in MCF-7 cells. It is filed as cell-based. Particulars: for % ERα remaining [1 μM]: MCF-7 cells, 24 h, compared to the solvent control (DMSO).
Description: Degradation was evaluated with the CellTagTM 700 In-Cell Western kit (LI-COR, Lincoln) according to the manufacturer’s protocol. MCF-7 cells were treated, and calculation was performed as previously described.[24]

The subject of a further data set is MDA-MB-231 cells. The data set can be described thus: Crystal violet assay, MDA-MB-231 cells. In kind it is cell-based.
The next data set concerns COS-7 cells. The data set can be described thus: Cellular uptake into COS-7 cells (fluorometry, related to protein content). It is filed as in vitro ADME, African green monkey. Particulars: 10 μM, after 4 h, nmol compound/mg protein.
Data set [4] deals with T2, ERβ. Particulars: for IC50: read-out: TR-FRET ERβ IC50, displacement of fluorescent-labeled E2 from the LBD of ERβ; for RBA ERβ: relative binding affinity compared to E2 (100%). On the technique in general: TR-FRET usually uses a lanthanide donor and a delayed reading to cut background.
Target sequence in this assay (Q92731 264-498 limits assumed): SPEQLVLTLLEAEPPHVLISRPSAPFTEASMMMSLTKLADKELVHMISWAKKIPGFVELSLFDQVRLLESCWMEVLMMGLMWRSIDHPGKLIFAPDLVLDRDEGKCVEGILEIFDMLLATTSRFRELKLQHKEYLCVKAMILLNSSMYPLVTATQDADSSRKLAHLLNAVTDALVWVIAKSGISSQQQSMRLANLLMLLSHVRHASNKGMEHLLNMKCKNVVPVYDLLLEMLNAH
Description: as §1
Data set [5] deals with T3, ERα. Description: Luciferase reporter gene assay (transactivation), U2OS cells transfected with pSG5-ERα. In kind it is cell-based. Conditions: inhibition of E2-induced (0.03 nM) transactivation.
For data set [6] the following is noted: 0.5 mM, methanol/2× PBS (75:25), 37 °C, 72 h.
Description: For the interpretation of the biological results, it is necessary to obtain information about the isomerization by simulating physiological conditions.
Data set [7] concerns the target T1, ERα. Description: TR-FRET coactivator (PGC-1 peptide) recruitment assay, ERα LBD. Conditions: E2 4 nM. It is filed as biochemical.
Description: drug concentrations: 5 nM to 3 μM) after an incubation time of 10 or 30 min.
Coactivator recruitment was tested using the LanthaScreen® TR-FRET ERα coactivator assay. The binding
of the fluorescein-labeled PGC1a coactivator peptide to the ERα LBD protein labeled with terbium was
Data set [8] concerns the target T2, ERβ. Conditions: 3 μM, incubation time 30 min, E2 34 nM.
Target sequence in this assay (Q92731 whole entry): as the sequence (Q92731 whole entry) above
[9] abbreviates: MCF7, read-out: % efficacy [1 μM], downregulation of ERα compared to fulvestrant (100%), MCF-7, 1 μM.

Where two headings read alike, the source gives them in different places.

Description for COS-7 cells: The compounds were incubated at a concentration of 10 μM with either MCF-7 or COS-7 cells, and the intracellular amount, determined by fluorometry, was related to the protein content.[42]
The determination of the cellular uptake in MCF-7 and COS-7 cells was performed as already described.[24] Measurement was conducted with the Enspire multimode plate reader.

As for `CCC(=C(c1ccc(O)cc1)c1ccc(/C=C/C(=O)NCCCNC(=O)CCCn2c(=S)[nH]c3ccccc3c2=O)cc1)c1ccccc1` (mixture of isomers) [Compound 15], the IC50 (commonly the concentration at which inhibition is half-maximal) on ERα [1] was 4.01 ± 1.9 nM; against ERβ [2] it was 4.1 ± 0.6 nM; at ERβ [4] it was 12.6 ± 4.8 nM; against ERα [5], 30.2 ± 14.3 nM. Besides, the “RBA ERα” value on ERα [1] came out at 8.2%. Moreover, in the data set with MCF-7 cells, the “cellular uptake, MCF-7 cells” value is listed as 2.8 nmol/mg. The “T/Ccorr MCF-7TamR” value with MCF-7TamR cells is on record as “about 40%”. At ERα [3] (setting [9]), the Emax at 1 µM stood at 60%. The “T/Ccorr MDA-MB-231” value with MDA-MB-231 cells amounted to 20%. Further, the “cellular uptake, COS-7 cells” value with COS-7 cells is reported as 1.6 nmol/mg. The “RBA ERβ” value on ERβ [4] was found to be 5.9%.
Regarding `CCC(=C(c1ccc(O)cc1)c1ccc(/C=C/C(=O)NCCCNC(=O)c2ccc(N3CCN(C(=O)CCCn4c(=S)[nH]c5ccccc5c4=O)CC3)cc2)cc1)c1ccccc1` (mixture of isomers) [Compound 17], the IC50 at ERα [1] came to 4.63 ± 1.74 nM; against ERβ [2], 48 ± 12 nM; at ERβ [4], 18.5 ± 4.8 nM; on ERα [5], 104 ± 14 nM. The “RBA ERα” value on ERα [1] worked out at 7.1%. Also, in the data set on MCF-7TamR cells, the “T/Ccorr MCF-7TamR” value is given as “about 40%”. The “amount of the E isomer” value in [6] is on record as 25%. The Emax at 1 µM at ERα [3] (setting [9]) turned out to be 94.5%. The “% ERα remaining [1 μM]” value on ERα [3] is 5.5 ± 5.0%. In addition, the “% efficacy [1 μM]” value at ERα [3] (downregulation of ERα compared to fulvestrant (100%), MCF-7, 1 μM) turned out to be 95%. Besides, on ERβ [4], the “RBA ERβ” value came out at 4%.
For `CCC(=C(c1ccc(O)cc1)c1ccc(/C=C/C(=O)O)cc1)c1ccccc1` (mixture of isomers) [GW7604, (E/Z)-3-(4-((E)-1-(4-Hydroxyphenyl)-2-phenylbut-1-enyl)phenyl)acrylic acid, reference compound], at ERα [7] (1 μM, after 10 min of incubation), the “reduction of PGC-1 binding at ERα” value is “completely reduced”. Besides, the coactivator binding on ERα [7] (5 μM, after 30 min, ERα) is on record as 45%. Further, in the data set on MCF-7TamR cells, the “T/Ccorr MCF-7TamR” value is reported as 68%. Also, on ERβ [8], the “repression of PGC1 binding at ERβ” value is listed as “complete repression”. Also, on ERα [3] (MCF7, read-out: % efficacy [1 μM]), the Emax at 1 µM was found to be 56%. For the same compound, on ERα [3], the “% ERα remaining [1 μM]” value was determined as 44.3 ± 12.1%. In addition, the “RBA ERβ” value at ERβ [4] was found to be 27.1%.
